Publication PMC11597746 (Pharmaceutics, 2024)
Values joined by “and” are separate entries in the source; they are usually repeats but may differ in a detail not shown here. Equal entries are not always repeated. Structures can show the parent of a compound that is named as a salt. Where two headings read alike, the source gives them in different places.

Tests used:
[1] = Plasma pharmacokinetics of PA, GPA and SPA in rats after single oral dose (HPLC-UV, noncompartmental analysis); type: in vivo, rats (Rattus norvegicus, outbred Wistar stock, males)
Protocol: (§1) Rats (Rattus norvegicus, outbred Wistar stock, males, 14 weeks old) were obtained from Anima Sp. z o.o. SK & ViVARI s.c. They were acclimated for one week in a temperature- and humidity-controlled environment with a 12 h light/dark cycle and had ad libitum access to food and water.
The drugs and vehicle were administered directly into the animals’ stomachs using a gastric probe. Animals received drugs in a sequential manner.
(§2) Blood samples were stored at −80 °C until analysis.
(§3) This approach reduced the number of animals involved in the experiment, adhering to the principles of the 3R concept. […] No other experimental conditions were altered.
The column temperature was maintained at 25 °C, the analytical wavelength (λmax) was set at 254 nm, and the injection volume was 50 μL. Theophylline was used as the IS.
The total time of analysis for each run was 10 min. Separation was achieved by isocratic elution of the mobile phase, comprising acetonitrile (93:7, v/v) and sodium sulfate 0.05 M pH 2.2 (adjusted with 85% orthophosphoric acid) at a flow rate of 1.0 mL/min through a BDS Hypersil® C18 column (150 mm × 4.6 mm, 5.0 μm particle size) (Thermo Electron Corporation®, Waltham, MA, USA).
(§4) Plasma data were subjected to noncompartmental pharmacokinetic analysis (NCA) using the PKanalix 2024R1 software (Lixoft, France). The maximum plasma concentration (Cmax) and time to reach Cmax (Tmax) were obtained directly from the concentration–time curves. The elimination rate constant (kel) was calculated by linear regression of the final linear part of plasma concentration against time. The elimination half-life (t0.5) was calculated from the formula t0.5 = 0.693/kel. The area under the concentration–time curve (AUC) was calculated using the linear trapezoidal rule. All data were presented as mean ± SD.

[2] = IIIPA group: PA 100 mg/kg b.w. + vehiculum, n = 8, mean ± SD, cited from earlier work
[3] = Plasma pharmacokinetics of REG, M-2 and M-5 in rats after single oral dose (UPLC-MS/MS, noncompartmental analysis); type: in vivo, rats (Rattus norvegicus, outbred Wistar stock, males); settings: for AUC0–∞ increased by / Cmax increased by: after the administration of PA (IREG+PA vs. IIREG); for AUC0–t / AUC0–∞ / Cmax: metabolite of REG
Protocol: as §1
The rats were divided into three groups: one group received REG and PA (IREG+PA), another group received REG (IIREG), and the last group received PA (IIIPA). […] [15] to the IREG+PA and IIIPA groups. The drugs and vehicle were administered directly into the animals’ stomachs using a gastric probe. Animals received drugs in a sequential manner.
as §2, §3
A Cortecs UPLC C18 column (2.1 × 50 mm, 1.6 μm) was equipped with an Acquity UPLC BEH C18 VanGuard pre-column (2.1 × 5 mm, 3/Pk, Waters Corporation). The injection volume was 5 μL. The temperature of the autosampler was 4 °C, and the temperature of the column was 40 °C. Mobile phase A comprised 0.1% aqueous FA solution (v/v) and phase B of ACN:MeOH and 0.1% FA aqueous solution at 1:3 (v/v) ratio. The total run time was 5 min.
The gradient was as follows: 0–0.5 min, with 10% B; 0.5–3 min, 95% B; 3–4 min, 95% B; 4–4.1 min, 10% B; and 4.1–5 min, 10% B. The flow rate was 0.4 mL/min. Positive electrospray ionization (ESI) multiple reaction monitoring (MRM) experiments were conducted for sample analysis. […] The Xevo TQ-S micro mass spectrometer settings were used: source temperature 150 °C, desolvation temperature 600 °C, nitrogen gas flow 900 L/h, and capillary voltage 3.6 kV.
as §4

[4] = mean ± SD, cited from earlier work
[5] = patients taking lorlatinib compared to controls; cited from earlier work
[6] = after administration in tablet form; cited from earlier work
plasma proteins = settings: cited from earlier work
[7] = IREG+PA group: REG 20 mg/kg b.w. + PA 100 mg/kg b.w., n = 8, mean ± SD
[8] = IREG+PA group: REG 20 mg/kg b.w. + PA 100 mg/kg b.w., single p.o. dose, n = 8, mean ± SD
[9] = PA co-administered with REG vs. PA alone
[10] = IREG+PA group: REG 20 mg/kg b.w. + PA 100 mg/kg b.w., single oral dose, n = 8, mean ± SD
[11] = metabolite of REG, IIREG group: vehiculum + REG 20 mg/kg b.w., single oral dose, n = 8
[12] = regorafenib and paracetamol vs. control group
[13] = IIREG group: vehiculum + REG 20 mg/kg b.w., single oral dose, n = 8

CC(=O)Nc1ccc(O[C@@H]2O[C@H](C(=O)O)[C@@H](O)[C@H](O)[C@H]2O)cc1 [GPA, paracetamol glucuronide]
Ratio GPA/PA AUC0–t [1, 7]: 1.50 ± 0.30 (19.7) | Ratio GPA/PA AUC0–∞ [1, 7]: 1.53 ± 0.34 (21.9) | Ratio GPA/PA Cmax [1, 7]: 1.02 ± 0.19 (18.9) | AUC0–t [1, 8]: 97.9 ± 16.13 (16.5) µg × h/mL | AUC0–∞ [1, 8]: 102.00 ± 18.50 (18.1) µg × h/mL | Cmax [1, 8]: 27.11 ± 3.05 (11.25) µg/mL | GPA/PA ratio for Cmax decreased by ([1]; IREG+PA vs. IIIPA): 63.73% | Gmean ratio (90% CI) of AUC0–t ([1]; IREG+PA vs. IIIPA): 0.72 (0.62; 0.84) | Gmean ratio (90% CI) of AUC0–∞ ([1]; IREG+PA vs. IIIPA): 0.67 (0.55; 0.80) | Gmean ratio (90% CI) of Cmax ([1]; IREG+PA vs. IIIPA): 0.71 (0.64; 0.77) | Gmean ratio (90% CI) of ratio GPA/PA AUC0–t ([1]; IREG+PA vs. IIIPA): 0.87 (0.70; 1.09) | Gmean ratio (90% CI) of ratio GPA/PA AUC0–∞ ([1]; IREG+PA vs. IIIPA): 0.88 (0.68; 1.13) | Gmean ratio (90% CI) of ratio GPA/PA Cmax ([1]; IREG+PA vs. IIIPA): 0.62 (0.50; 0.77) | AUC0–t decreased by [1, 9]: 39.16% | AUC0–∞ decreased by [1, 9]: 51.1% and 51.07% | Ratio GPA/PA AUC0–t [2]: 1.75 ± 0.47 (27.1) | Ratio GPA/PA AUC0–∞ [2]: 1.78 ± 0.54 (30.6) | Ratio GPA/PA Cmax [2]: 1.67 ± 0.41 (24.8) | AUC0–t ([2]; single p.o. dose): 136.24 ± 23.58 (17.3) µg × h/mL | AUC0–∞ ([2]; single p.o. dose): 154.09 ± 35.58 (23.09) µg × h/mL | Cmax ([2]; single p.o. dose): 38.38 ± 3.75 (9.8) µg/mL

CNC(=O)c1cc(Oc2ccc(NC(=O)Nc3ccc(Cl)c(C(F)(F)F)c3)c(F)c2)cc[n+]1[O-] [M-2, regorafenib-N-oxide]
AUC0–∞ increased by [3]: 170% | Cmax increased by [3]: 220% | AUC0–t [3, 10]: 31,036.39 ± 16,132.08 (52.0) ng × h/mL | AUC0–∞ [3, 10]: 31,434.01 ± 16,129.53 (51.3) ng × h/mL | Cmax [3, 10]: 1087.58 ± 471.76 (43.4) ng/mL | AUC0–t [4, 11]: 9615.36 ± 2275.41 (23.7) ng × h/mL | AUC0–∞ [4, 11]: 11,469.93 ± 2133.05 (18.6) ng × h/mL

NC(=O)c1cc(Oc2ccc(NC(=O)Nc3ccc(Cl)c(C(F)(F)F)c3)c(F)c2)cc[n+]1[O-] [M-5, N-desmethyl-regorafenib-N-oxide]
AUC0–∞ increased by [3]: 1730% | Cmax increased by [3]: 2130% | AUC0–t [3, 10]: 15,054.83 ± 7479.43 (49.7) ng × h/mL | AUC0–∞ [3, 10]: 15,506.44 ± 8001.74 (51.6) ng × h/mL | Cmax [3, 10]: 585.96 ± 193.12 (33.0) ng/mL | AUC0–t [4, 11]: 803.19 ± 177.02 (22.0) ng × h/mL | AUC0–∞ [4, 11]: 847.88 ± 178.97 (21.1) ng × h/mL

CC(=O)Nc1ccc(O)cc1 [PA, paracetamol, reference compound]
Cmax [1, 8]: 27.08 ± 3.88 (14.3) µg/mL | t0.5 [1, 8]: 1.14 ± 0.45 (39.7) h | AUC0–t decreased by [1, 9]: 20.72% | AUC0–t decreased by ([1]; PA co-administered with REG vs. PA alone, listed as paracetamol): 17.16% | decrease in Vd/F [1, 12]: 54.04% | decrease in t0.5 [1, 12]: 49.56% | Vd/F ([2]; single p.o. dose): 1.98 ± 0.63 mL/g | t0.5 ([2]; single p.o. dose): 2.26 ± 0.70 (31.0) h | tmax ([2]; single p.o. dose): 0.81 ± 0.58 (71.2) h | decrease in AUC0–∞ [5]: 43% | decrease in Cmax [5]: 15%

CNC(=O)c1cc(Oc2ccc(NC(=O)Nc3ccc(Cl)c(C(F)(F)F)c3)c(F)c2)ccn1 [REG, regorafenib]
t0.5 [3, 10]: 10.67 ± 2.48 (23.28) h | AUC0–∞ increased by [3]: 1140% | Cmax increased by [3]: 890% | AUC0–∞ [4, 13]: 36.85 ± 5.83 (15.8) µg × h/mL | Cmax [4, 13]: 1.87 ± 0.31 (16.5) µg/mL | Vd/F [4, 13]: 2.05 ± 0.61 (29.7) L | kel [4, 13]: 0.11 ± 0.03 (22.8) 1/h | Sum of the Cmax values for REG, M-2, and M-5 ([4]; IIREG group): 2078.95 ± 691.36 ng/mL | average bioavailability [6]: 69% | bind to plasma proteins (plasma proteins): 99.5%

CC(=O)Nc1ccc(OS(=O)(=O)O)cc1 [SPA, paracetamol sulfate]
Ratio SPA/PA AUC0–t [1, 7]: 2.18 ± 0.50 (22.9) | Ratio SPA/PA AUC0–∞ [1, 7]: 2.40 ± 0.68 (28.4) | Ratio SPA/PA Cmax [1, 7]: 1.14 ± 0.12 (10.1) | AUC0–t [1, 8]: 140.89 ± 17.87 (12.7) µg × h/mL | AUC0–∞ [1, 8]: 157.71 ± 24.35 (15.4) µg × h/mL | Cmax [1, 8]: 30.61 ± 3.94 (12.9) µg/mL | Gmean ratio (90% CI) of AUC0–t ([1]; IREG+PA vs. IIIPA): 2.13 (1.58; 2.86) | Gmean ratio (90% CI) of AUC0–∞ ([1]; IREG+PA vs. IIIPA): 2.04 (1.54; 2.71) | Gmean ratio (90% CI) of Cmax ([1]; IREG+PA vs. IIIPA): 1.67 (1.29; 2.15) | Gmean ratio (90% CI) of ratio SPA/PA AUC0–t ([1]; IREG+PA vs. IIIPA): 2.58 (1.84; 3.60) | Gmean ratio (90% CI) of ratio SPA/PA AUC0–∞ ([1]; IREG+PA vs. IIIPA): 2.69 (1.94; 3.72) | Gmean ratio (90% CI) of ratio SPA/PA Cmax ([1]; IREG+PA vs. IIIPA): 1.47 (1.04; 2.09) | SPA/PA ratio for AUC0–t increased by ([1]; IREG+PA vs. IIIPA): 139.52% | SPA/PA ratio for AUC0–∞ increased by ([1]; IREG+PA vs. IIIPA): 155.32% | AUC0–t increased by [1, 9]: 95.89% | AUC0–∞ increased by [1, 9]: 91.35% | Cmax increased by [1, 9]: 57.70% | Ratio SPA/PA AUC0–t [2]: 0.91 ± 0.43 (47.3) | Ratio SPA/PA AUC0–∞ [2]: 0.94 ± 0.40 (42.4) | Ratio SPA/PA Cmax [2]: 0.88 ± 0.46 (52.7) | AUC0–t ([2]; single p.o. dose): 71.92 ± 31.03 (43.2) µg × h/mL | AUC0–∞ ([2]; single p.o. dose): 82.42 ± 32.71 (39.7) µg × h/mL | Cmax ([2]; single p.o. dose): 19.41 ± 7.05 (36.4) µg/mL
